Experimental data as given in ChEMBL document CHEMBL5096175, “An insight into the medicinal attributes of berberine derivatives: A review” (Bioorg Med Chem, 2021).

Key:
HL-60 [1] = assay: Antiproliferative activity against human HL-60 cells incubated for 48 hrs by MTT assay; assay type: functional, cell-based; conditions: HL-60, 48 h
HL-60 [2] = assay: Potency index, ratio of berberine IC50 to test compound IC50 for antiproliferative activity against human HL-60 cells incubated for 48 hrs by MTT assay; assay type: functional
Coxsackievirus B5 = assay: Antiviral activity against Coxsackievirus B5 infected in African green monkey Vero cells assessed as reduction in virus-induced cytopathic effect incubated for 48 hrs by microscopic analysis; assay type: functional, organism-based; conditions: Enterovirus B
Coxsackievirus B6 = assay: Antiviral activity against Human Coxsackievirus B6 infected in African green monkey Vero cells assessed as reduction in virus-induced cytopathic effect incubated for 48 hrs by microscopic analysis; assay type: functional, organism-based; conditions: Enterovirus B
Coxsackievirus B2 = assay: Antiviral activity against Human Coxsackievirus B2 infected in African green monkey Vero cells assessed as reduction in virus-induced cytopathic effect incubated for 48 hrs by microscopic analysis; assay type: functional, organism-based; conditions: Enterovirus B
Coxsackievirus B4 = assay: Antiviral activity against Coxsackievirus B4 infected in African green monkey Vero cells assessed as reduction in virus-induced cytopathic effect incubated for 48 hrs by microscopic analysis; assay type: functional, organism-based; conditions: Enterovirus B
Coxsackievirus B3 = assay: Antiviral activity against Coxsackievirus B3 infected in African green monkey Vero cells assessed as reduction in virus-induced cytopathic effect incubated for 48 hrs by microscopic analysis; assay type: functional, organism-based; conditions: Enterovirus B
RAW264.7 [3] = assay: Antiinflammatory activity in LPS-induced mouse RAW264.7 cells assessed as reduction in […] level at 25 uM pretreated for 1 hr followed by LPS stimulation and measured after 49 hrs by ELISA relative to control; assay type: functional; design: scale not given: the % may be the effect or the level left; conditions: time 50 hrs
RAW264.7 [4] = assay: Antiinflammatory activity in LPS-induced mouse RAW264.7 cells assessed as reduction in COX-2 level at 25 uM pretreated for 1 hr followed by LPS stimulation and measured after 49 hrs by ELISA relative to control; assay type: functional; design: scale not given: the % may be the effect or the level left; conditions: time 50 hrs
[5] = Induction of glucose-stimulated insulin secretion in rat INS1 cells assessed as increase in insulin secretion at 25 uM pretreated for 48 hrs followed by glucose stimulation and measured after 1 hr by ELISA; assay type: functional
[6] = Cytotoxicity against mouse 3T3-L1 assessed as reduction in cell viability measured after 48 hrs by CCK-8 assay; assay type: toxicity, cell-based; conditions: 3T3-L1 cells
[7] = Acute toxicity in ip dosed NIH mouse expressing aP2-SREBP-1c assessed as lethal dose measured for 14 days by modified karber's method; assay type: organism-based; conditions: in vivo, time 14 day

SMILES: COc1ccc2cc3[n+](cc2c1OCCCBr)CCc1cc2c(cc1-3)OCO2.[Cl-]
- IC50 (HL-60 [1]): 0.7 µM
- Ratio IC50 (HL-60 [2]): 30

SMILES: COc1cc2c(cc1OCCOCCN)CC[n+]1cc3c(OC)c(OC)ccc3cc1-2
- IC50 (Coxsackievirus B5): 3.08 µM
- IC50 (Coxsackievirus B6): 3.08 µM
- IC50 (Coxsackievirus B2): 3.08 µM
- IC50 (Coxsackievirus B4): 3.08 µM
- IC50 (Coxsackievirus B3): 3.08 µM

SMILES: COc1ccc2cc3[n+](cc2c1OCc1nc(C)nc(N(C)C)n1)CCc1cc2c(cc1-3)OCO2.[Cl-]
- Activity (RAW264.7 [3]): 36.41%
- Activity (RAW264.7 [4]): 25.42%
- Activity [5]: 143%

SMILES: C=CCc1ccc(O)c(-c2cc(CC=C)ccc2OCCOc2c(OC)ccc3cc4[n+](cc23)CCc2cc3c(cc2-4)OCO3)c1.[Cl-]
- IC50 at 48 h [6]: 11.5 µM
- LD50 at 336 h [7]: 279 mg/kg
